From patent publication US20260201476A1, “METHODS FOR IDENTIFYING RESISTANCE OR RESPONSE TO VENETOCLAX/HYPOMETHYLATING AGENT/ANTI-CD70 AGENT TREATMENT FOR ACUTE MYELOID LEUKEMIA” (The Regents of the University of Colorado, A Body Corporate, priority 2022, published 2026)
Read-outs that look alike come from different tables or passages of the source.

What was measured:
[1] = tested on: newly diagnosed AML; details: 1118 newly diagnosed AML patients, cited from earlier work
[2] = tested on: AML; details: older previously untreated AML patients; venetoclax in combination with backbone chemotherapy treatments; cited from earlier work
[3] = tested on: AML; assay: Survival probability of AML subjects by biomarker after venetoclax/azacitidine with or without cusatuzumab (Example 3); format: in vivo, human
Source text: The following is a non-limiting example of analysis showing the response of AML subjects to treatment with a combination of venetoclax and azacitidine, or a combination of venetoclax, azacitidine and cusatuzumab, based on various different biomarkers.
FIGS. 12-15 are a series of graphs showing the survival probability of AML subjects after receiving a combination of venetoclax, azacitidine and cusatuzumab. The left panel of each of FIGS. 12-15 are all subjects for which data was available, and the right panel is a subset of the data presented in the left panel minus the subjects who received at least one stem cell transplant.
FIGS. 16-18 are a series of graphs showing the survival probability of AML subjects after receiving either a combination of venetoclax and azacitidine (top panels) or a combination of venetoclax, azacitidine and cusatuzumab (bottom panels).

## Nc1ccn([C@@H]2O[C@H](CO)[C@@H](O)[C@@H]2O)c(=O)n1 [cytarabine, 4-amino-1-[(2R,3S,4S,5R)-3,4-dihydroxy-5-(hydroxymethyl)oxolan-2-yl] pyrimidin-2-one]
[1]; ELN 2022 adverse risk group
  5-year OS: 15%
[1]; ELN 2022 favorable risk group
  5-year OS: 55%
[1]; ELN 2022 intermediate risk group
  5-year OS: 34%

## CC1(C)CCC(CN2CCN(c3ccc(C(=O)NS(=O)(=O)c4ccc(NCC5CCOCC5)c([N+](=O)[O-])c4)c(Oc4cnc5[nH]ccc5c4)c3)CC2)=C(c2ccc(Cl)cc2)C1 [venetoclax, 4-(4-{[2-(4-Chlorophenyl)-4,4-dimethyl-1-cyclohexen-1-yl]methyl}-1-piperazinyl)-N-({3-nitro-4-[(tetrahydro-2H-pyran-4-ylmethyl)amino]phenyl}sulfonyl)-2-(1H-pyrrolo[2,3-b]pyridin-5-yloxy)benzamide]
[2]
  responses: 60-70%

## cusatuzumab: an anti-CD70 monoclonal antibody currently being tested in clinical trials for the treatment of AML
[3]; CD7+ AML (FIG. 16)
  effect of adding cusatuzumab to venetoclax and azacitidine on survival: overcome the poor prognostic significant of CD7+ AML
[3]; FIG. 18 (PTPN11), text prints mutated KRAS
  effect of adding cusatuzumab to venetoclax and azacitidine on survival: overcome the poor prognostic significant of mutated KRAS
[3]; mutated KRAS (FIG. 17)
  effect of adding cusatuzumab to venetoclax and azacitidine on survival: overcome the poor prognostic significant of mutated KRAS
